Assay results from paper PMC8805605, “Discovery of Dimeric Arylsulfonamides as Potent ADAM8 Inhibitors” (ACS Medicinal Chemistry Letters, 2021).

Legend:
MMP-1 = biological target: T1, MMP-1 (Homo sapiens, UniProt P03956); assay: MMP-1 fluorometric inhibition assay; type: biochemical; conditions: mean of three independent experiments in duplicate, read-out: In vitro inhibitory activity IC50 on MMP-1
T1 construct: purchased Calbiochem (Merck-Millipore)
T1 sequence (P03956 100-469): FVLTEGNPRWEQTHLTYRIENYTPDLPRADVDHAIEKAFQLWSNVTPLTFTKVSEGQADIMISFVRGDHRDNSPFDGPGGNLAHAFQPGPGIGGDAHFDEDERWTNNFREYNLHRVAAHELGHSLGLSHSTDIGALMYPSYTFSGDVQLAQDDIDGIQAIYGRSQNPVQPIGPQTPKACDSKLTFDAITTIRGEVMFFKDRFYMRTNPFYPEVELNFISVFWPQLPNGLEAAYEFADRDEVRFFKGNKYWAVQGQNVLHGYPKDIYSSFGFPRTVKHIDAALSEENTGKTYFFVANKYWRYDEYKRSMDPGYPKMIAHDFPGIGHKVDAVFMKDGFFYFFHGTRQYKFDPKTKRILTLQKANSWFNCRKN
Protocol: (§1) The newly synthesized bivalent derivatives 1–3 were then tested in vitro on human recombinant ADAM8 in comparison with JG26 by a fluorometric assay. The inhibitory activity against a panel of MMPs and ADAM10/17 was determined as well to assess their selectivity profile. […]
(§2) VI. Biological Activity on Isolated Enzymes
(§3) MMP and ADAM10 inhibition assays.
(§4) Recombinant human MMP-14 catalytic domain was a kind gift of Prof. Gillian Murphy (Department of […]
(§5) Oncology, University of Cambridge, UK). Pro-MMP-1, pro-MMP-2, and pro-MMP-9, were purchased […]
(§6) from Calbiochem (Merck-Millipore). Pro-MMP-12 and ADAM10 were purchased from R&D Systems.
(§7) Proenzymes were activated immediately prior to use with p-aminophenylmercuric acetate (APMA 2 […]
(§8) mM for 1 h at 37°C for MMP-2 and MMP-1, 1 mM for 1 h at 37°C for MMP-9). Pro-MMP-12 was […]
(§9) auto activated by incubating in the fluorometric assay buffer (FAB: Tris 50 mM, pH = 7.5, NaCl 150 […]
(§10) mM, CaCl2 10 mM, Brij 35 0.05% and DMSO 1%) for 30 h at 37°C. For assay measurements, each […]
(§11) inhibitor stock solution (DMSO, 10 mM) was further diluted in FAB at seven different concentrations.
(§12) Activated enzyme (final concentration 0.56 nM for MMP-2, 1.3 nM for MMP-9, 1.0 nM for MMP- […]
(§13) 14cd, 2.0 nM for MMP-1, 2.3 nM for MMP-12 and 20 nM for ADAM10) and inhibitor solutions were […]
(§14) incubated in the assay buffer for 3 h at 25 °C. ADAM10 was incubated for 1 h at 37°C in a different […]
(§15) buffer at pH 9 (Tris 25 mM, ZnCl2 25 µM, Brij-35 0.005 %). After the addition of 200 µM solution of […]
(§16) the fluorogenic substrate Mca-Lys-Pro-Leu-Gly-Leu-Dap(Dnp)-Ala-Arg-NH2 (Bachem) for all the […]
(§17) enzymes in DMSO (final concentration 2 µM for all enzymes, 10 µM for ADAM10), the hydrolysis […]
(§18) was monitored every 10 sec. for 15 min. recording the increase in fluorescence (λ ex = 325 nm, λ em = […]
(§19) 400 nm) using a Molecular Devices SpectraMax Gemini XPS plate reader. The assays were performed […]
(§20) in triplicate in a total volume of 200 μL per well in 96-well microtitre plates (Corning, black, NBS).
(§21) Control wells lack inhibitor. The MMP inhibition activity was expressed in relative fluorescent units […]
(§22) (RFU). Percent of inhibition was calculated from control reactions without the inhibitor. IC50 was determined using the formula: v i/v o = 1/(1 + [I]/ IC50), where v i is the initial velocity of substrate cleavage in the presence of the inhibitor at concentration [I] and v o is the initial velocity in the absence of the inhibitor. Results were analyzed using SoftMax Pro software (version 5.4.3, Molecular Devices, Sunnyvale, CA) and Prism Software version 5.0 (GraphPad Software, Inc., La Jolla, CA, USA).
(§23) ADAM8 and ADAM17 inhibition assays […]

ADAM10 = biological target: T2, ADAM10 (Homo sapiens, UniProt O14672); assay: ADAM10 fluorometric inhibition assay; type: biochemical; conditions: mean of three independent experiments in duplicate, read-out: In vitro inhibitory activity IC50 on ADAM10
T2 construct: purchased R&D Systems
T2 sequence (O14672 214-748): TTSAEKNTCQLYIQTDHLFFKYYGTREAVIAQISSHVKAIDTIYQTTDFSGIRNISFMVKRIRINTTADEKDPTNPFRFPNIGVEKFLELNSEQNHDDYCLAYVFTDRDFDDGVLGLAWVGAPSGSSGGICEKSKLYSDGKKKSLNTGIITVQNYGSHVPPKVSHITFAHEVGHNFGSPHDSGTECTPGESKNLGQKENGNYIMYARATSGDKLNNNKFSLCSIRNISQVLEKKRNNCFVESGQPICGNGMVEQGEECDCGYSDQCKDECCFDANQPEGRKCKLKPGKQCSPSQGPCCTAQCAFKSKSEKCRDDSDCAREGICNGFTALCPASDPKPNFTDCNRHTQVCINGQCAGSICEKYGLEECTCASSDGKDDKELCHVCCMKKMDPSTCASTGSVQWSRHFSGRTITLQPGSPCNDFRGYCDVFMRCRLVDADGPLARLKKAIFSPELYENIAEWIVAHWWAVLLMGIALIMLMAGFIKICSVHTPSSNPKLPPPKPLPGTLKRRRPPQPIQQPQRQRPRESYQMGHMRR
Protocol: as §1, §2, §3, §4, §5, §6, §7, §8, §9, §10, §11, §12, §13, §14, §15, §16, §17, §18, §19, §20, §21, §22, §23

SMILES	IC50 (MMP-1)	IC50 (ADAM10)
O=C(NCCC[C@@H](NS(=O)(=O)c1ccc(OCc2cc(Br)cc(Br)c2)cc1)C(=O)NO)NCCC[C@@H](NS(=O)(=O)c1ccc(OCc2cc(Br)cc(Br)c2)cc1)C(=O)NO [Compound 3]	348 µM	27.4 µM
NC(=O)NCCC[C@@H](NS(=O)(=O)c1ccc(OCc2cc(Br)cc(Br)c2)cc1)C(=O)NO [JG26, reference compound]	> 500 µM	0.15 µM
O=C(NCCC[C@@H](NS(=O)(=O)c1ccc(OCc2cc(Br)cc(Br)c2)cc1)C(=O)NO)c1cccc(C(=O)NCCC[C@@H](NS(=O)(=O)c2ccc(OCc3cc(Br)cc(Br)c3)cc2)C(=O)NO)c1 [Compound 2]	> 200 µM	10 µM
O=C(CCCNC(=O)c1cccc(C(=O)NCCCC(=O)NCCC[C@@H](NS(=O)(=O)c2ccc(OCc3cc(Br)cc(Br)c3)cc2)C(=O)NO)c1)NCCC[C@@H](NS(=O)(=O)c1ccc(OCc2cc(Br)cc(Br)c2)cc1)C(=O)NO [Compound 1]	415 µM	30.6 µM
